EC50, inhibition and CC50 data for 16 compounds are collected here from patent US9795602B2, “Polycyclic-carbamoylpyridone compounds and their pharmaceutical use” (Gilead Sciences, Inc., priority 2014, dated 2017).

Read-outs that look alike come from different tables or passages of the source.

For orientation: EC50 means the concentration needed to bring the measured effect to its halfway point. For orientation: CC50 means the concentration giving 50% cytotoxicity.

What all share (format): cell-based
The subject of data set [1] is HIV-IIIb. Kind of data set: Antiviral assay in MT4 cells. Particulars: Human immunodeficiency virus 1, IIIB, MT4, 120 h, MT4 cells, HIV-IIIb, 5 days; read-out: EC50. The protocol:
1 mL aliquots of 2×10^6 MT4 cells are pre-infected for 1 and 3 hours respectively at 37° C. with 25 μL (MT4) or of either cell growth medium (mock-infected) or a fresh 1:250 dilution of an HIV-IIIb concentrated ABI stock (0.004 m.o.i. for MT4 cells). Infected and uninfected cells are diluted in cell growth medium and 35 μL of 2000 (for MT4) cells is added to each well of the assay plates.
Assay plates were then incubated in a 37° C. incubator. After 5 days of incubation, 25 μL of 2× concentrated CellTiter-Glo™ Reagent (catalog # G7573, Promega Biosciences, Inc., Madison, Wis.) was added to each well of the assay plate. Cell lysis was carried out by incubating at room temperature for 2-3 minutes, and then chemiluminescence was read using the Envision reader (PerkinElmer).

Data set [2] has as its target PXR (NR1I2) (Homo sapiens (Human), UniProt O75469). Briefly: Human PXR activation assay (luciferase reporter, DPX2 cells). The settings on record: human. The method, then: Luciferase Reporter Gene Assay.
A stably transformed tumor cell line (DPX2) was plated on 96-well microtiter plates. […]. The number of viable cells was determined and the reporter gene activity was assessed. […]

Data set [3] is described as follows: Cytotoxicity (CC50) in MT4 cells, mock-infected. The settings on record: human. The method, then: Infected and uninfected cells are diluted in cell growth medium and 35 μL of 2000 (for MT4) cells is added to each well of the assay plates. Assay plates were then incubated in a 37° C. incubator. After 5 days of incubation, 25 μL of 2× concentrated CellTiter-Glo™ Reagent (catalog # G7573, Promega Biosciences, Inc., Madison, Wis.) was added to each well of the assay plate. Cell lysis was carried out by incubating at room temperature for 2-3 minutes, and then chemiluminescence was read using the Envision reader (PerkinElmer).

The mark [4] stands for this setting: 15 uM, DPX2 cells, % Emax relative to rifampicin, adjusted for DMSO background, read-out: PXR % inh at 15 uM (adjusted).

Chain of PXR (NR1I2) (O75469 whole entry): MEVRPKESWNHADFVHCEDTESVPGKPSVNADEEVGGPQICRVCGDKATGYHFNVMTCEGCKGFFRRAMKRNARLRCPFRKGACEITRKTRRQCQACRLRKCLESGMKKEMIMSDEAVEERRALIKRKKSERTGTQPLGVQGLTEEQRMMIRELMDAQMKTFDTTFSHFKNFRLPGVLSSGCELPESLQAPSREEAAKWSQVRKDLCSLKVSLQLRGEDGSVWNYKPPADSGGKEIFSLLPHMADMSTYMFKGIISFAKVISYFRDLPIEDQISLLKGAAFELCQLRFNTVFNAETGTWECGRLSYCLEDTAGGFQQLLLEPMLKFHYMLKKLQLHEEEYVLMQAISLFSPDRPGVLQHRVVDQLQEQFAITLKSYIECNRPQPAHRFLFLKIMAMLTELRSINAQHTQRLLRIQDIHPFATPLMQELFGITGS

As to `CCN1C(=O)c2c(O)c(=O)c(C(=O)NCc3cccc(F)c3F)cn2[C@H]2CCOC[C@H]21` [Compound 18], in data set [1], the EC50 was 0.00333 µM. In data set [2] (setting [4]), the inhibition at 24 h, 15 µM turned out to be 2%. The same compound returned a CC50 at 5 days in data set [3] (mock-infected (uninfected)) of 26.9 µM.

On to `CCN1C(=O)c2c(O)c(=O)c(C(=O)NCc3cccc(Cl)c3F)cn2[C@H]2CCOC[C@H]21` [Compound 16], for which the EC50 in data set [1] was 0.00213 µM. In data set [2] (setting [4]), the inhibition at 24 h, 15 µM was determined as 7%. Moreover, in data set [3] (mock-infected (uninfected)), the CC50 at 5 days amounted to 11.5 µM.

Consider `C[C@@H]1OCC[C@H]2[C@@H]1N(C)C(=O)c1c(O)c(=O)c(C(=O)NCc3ccc(F)c(Cl)c3F)cn12` [Compound 55, (4S,4aS,11aS)-N-(3-chloro-2,4-difluorobenzyl)-7-hydroxy-4,5-dimethyl-6,8-dioxo-1,2,4,4a,5,6,8,11a-octahydropyrano[3,4-e]pyrido[1,2-a]pyrazine-9-carboxamide], for which the EC50 in data set [1] was 0.00191 µM. Moreover, the inhibition at 24 h, 15 µM in data set [2] (setting [4]) stood at 2%. This compound displayed a CC50 at 5 days in data set [3] (mock-infected) of 9.66 µM.

For the compound `CN1C(=O)c2c(O)c(=O)c(C(=O)NCc3c(F)cc(F)cc3F)cn2[C@@H]2CCCC[C@H]21` [Compound 1], the EC50 in data set [1] came to 0.00643 µM. In addition, in data set [2], the inhibition at 24 h, 15 µM came to 32%. The compound also gave a CC50 at 5 days in data set [3] (mock-infected (uninfected)) of 27.3 µM.

Regarding `CCN1C(=O)c2c(O)c(=O)c(C(=O)NCc3ccc(F)c(Cl)c3F)cn2[C@@H]2CCO[C@@H]21` [Compound 25a], the EC50 in data set [1] turned out to be 0.00458 µM. Also, the inhibition at 24 h, 15 µM in data set [2] (setting [4]) was 20%. This compound displayed a CC50 at 5 days in data set [3] (mock-infected (uninfected)) of 25.9 µM.

Take `CN1C(=O)c2c(O)c(=O)c(C(=O)NCc3c(F)cc(F)cc3F)cn2[C@@H]2CCOC[C@@H]21` [Compound 30]: in data set [1], the EC50 stood at 0.00325 µM. In addition, in data set [2] (setting [4]), the inhibition at 24 h, 15 µM worked out at 9%. This compound came in with a CC50 at 5 days in data set [3] (mock-infected (uninfected)) of 10.4 µM.

As for `CCCN1C(=O)c2c(O)c(=O)c(C(=O)NCc3c(F)cc(F)cc3F)cn2[C@@H]2CCO[C@@H]21` (racemic) [Compound 24], in data set [1], the EC50 turned out to be 0.00729 µM. In data set [2] (setting [4]), the inhibition at 24 h, 15 µM is 29%. The CC50 at 5 days in data set [3] (mock-infected) turned out to be 37.5 µM.

Regarding `O=C(NCc1c(F)cc(F)cc1F)c1cn2c(c(O)c1=O)C(=O)N(CC(F)(F)F)[C@@H]1CCCC[C@H]12` [Compound 7], the EC50 in data set [1] was found to be 0.0149 µM. Also, in data set [2] (setting [4]), the inhibition at 24 h, 15 µM was 36%. Also, the CC50 at 5 days in data set [3] (mock-infected (uninfected)) stood at 19.8 µM.

As for `O=C(NCc1c(F)cc(F)cc1F)c1cn2c(c(O)c1=O)C(=O)N(CC(F)(F)F)[C@@H]1CCOC[C@H]12` [Compound 8], the EC50 in data set [1] was 0.0165 µM. Also, the inhibition at 24 h, 15 µM in data set [2] (setting [4]) turned out to be 24%. The compound also gave a CC50 at 5 days in data set [3] (mock-infected (uninfected)) of 57.1 µM.

In the case of `CN1C(=O)c2c(O)c(=O)c(C(=O)NCc3c(F)cc(F)cc3F)cn2[C@H]2CCOC[C@H]21` [Compound 48], the EC50 in data set [1] stood at 0.0043 µM. Further, the inhibition at 24 h, 15 µM in data set [2] (setting [4]) was determined as 1%. For the same compound, in data set [3] (mock-infected (uninfected)), the CC50 at 5 days stood at 32.3 µM.

As to `CCN1C(=O)c2c(O)c(=O)c(C(=O)NCc3ccc(F)c(F)c3)cn2[C@H]2CCOC[C@H]21` [Compound 20], the EC50 in data set [1] was found to be 0.0096 µM. For the same compound, in data set [2] (setting [4]), the inhibition at 24 h, 15 µM was 1%. The CC50 at 5 days in data set [3] (mock-infected (uninfected)) amounted to 34.1 µM.

On to `CN1C(=O)c2c(O)c(=O)c(C(=O)NCc3c(F)cc(F)cc3F)cn2[C@@H]2CCOC[C@H]21` [Compound 10], for which the EC50 in data set [1] came to 0.00765 µM. In data set [3] (mock-infected (uninfected)), this compound registered a CC50 at 5 days of 34.9 µM.

With `CN1C(=O)c2c(O)c(=O)c(C(=O)NCc3c(F)cc(F)cc3F)cn2[C@@H]2CCC[C@@H]21` [Compound 29], the inhibition at 15 µM in data set [2] (setting [4]) was determined as 49%.

As to `CN1C(=O)c2c(O)c(=O)c(C(=O)NCc3ccc(F)c(Cl)c3F)cn2[C@@H]2CCO[C@@H]21` [Compound 27], the EC50 in data set [1] stood at 0.00117 µM. Besides, the midpoint of cytotoxicity in data set [3] (mock-infected (uninfected)), the CC50 at 5 days, lay at 57.1 µM.

Regarding `CN1C(=O)c2c(O)c(=O)c(C(=O)NCc3c(F)cc(F)cc3F)cn2[C@H]2CCC[C@H]21` [Compound 58], the inhibition at 15 µM in data set [2] (setting [4]) is 25%.

As for `CN1C(=O)c2c(O)c(=O)c(C(=O)NCc3c(F)cc(F)cc3F)cn2[C@@H]2CCCC[C@@H]21` [Compound 3], in data set [1], the EC50 came out at 0.00296 µM. Also, in data set [3] (mock-infected (uninfected)), it took 11 µM to reach half-maximal cytotoxicity (CC50 at 5 days).
